For data set [1] the following is noted: Crystal; DTA.
Data set [2] is described as follows: Molar enthalpy of transition or fusion. Particulars: Crystal; DSC.

Each structure is given as a SMILES string. ± gives the expanded uncertainty stated by the source.

Turning to `c1cnc2c(c1)ccc1ncccc12` [1,5-diazaphenanthrene], the Normal melting temperature in data set [1] turned out to be 77.2 ± 0.5 °C. For the same compound, in data set [2], the “Molar enthalpy of transition or fusion” value stood at 4.35 ± 0.167 kcal/mol.

On to `c1ccc(-c2ccncc2)nc1` [2,4'-bipyridine], for which, in data set [1], the Normal melting temperature was found to be 59.7 ± 0.5 °C. Also, the “Molar enthalpy of transition or fusion” value in data set [2] stood at 4.16 ± 0.215 kcal/mol.

Turning to `c1cnc2ccc3ncccc3c2c1` [4,7-phenanthroline], the Normal melting temperature in data set [1] was determined as 172.4 ± 0.5 °C. Besides, the “Molar enthalpy of transition or fusion” value in data set [2] is 5.21 ± 0.263 kcal/mol.

On to `c1ccc(-c2ccncn2)cc1` [4-phenylpyrimidine], for which the Normal melting temperature in data set [1] amounted to 61.0 ± 0.5 °C. For the same compound, the “Molar enthalpy of transition or fusion” value in data set [2] came to 4.49 ± 0.167 kcal/mol.

On to `c1cc(-c2ccncc2)ccn1` [γ,γ'-bipyridyl], for which the Normal melting temperature in data set [1] turned out to be 104.4 ± 0.5 °C. For the same compound, the “Molar enthalpy of transition or fusion” value in data set [2] was found to be 3.85 ± 0.478 kcal/mol.

The record behind these values is the NIST ThermoML archive (doi:10.1021/je900034d).
